Literature values in US4217357A, “Inhibition of thromboxane synthetase with 3-(imidazol-1-ylalkyl)indoles” (Pfizer Inc., priority 1978, dated 1980).

Key:
[1] = system: aggregation of platelets; settings: abdominal aorta of rats in vivo; cited from earlier work
[2] = system: human blood platelet aggregation; settings: variety of aggregating agents; cited from earlier work
[3] = system: rabbit; settings: intravenous arachidonic acid, rabbits; cited from earlier work

## O=C1C(CC[S+]([O-])c2ccccc2)C(=O)N(c2ccccc2)N1c1ccccc1 (stereo not drawn) [sulphinpyrazone]
[1]
  prevention of aggregation of platelets in extra corporeal loop: prevent the aggregation of platelets
[2]
  inhibitory activity in vitro against aggregating agents: show inhibitory activity in vitro
[3]
  protection from the lethal effect of arachidonic acid injection: protect the rabbit from the lethal effect of the injection
